In patent US6914064B2, “1,4-Disubstituted piperazine derivatives useful as uro-selective α1-adrenoceptor blockers” (Ranbaxy Laboratories Limited, priority 2000, dated 2005):

Key:
α1D adrenoceptor (aorta) = molecular target: T1, α1D adrenoceptor (aorta) (Rattus norvegicus, UniProt P23944); assay: In vitro functional study, antagonism of norepinephrine-induced contraction of aorta; type: biochemical; conditions: tested compound at 0.1, 1 and 10 mM, read-out: α Adrenoceptor Subtype (pKB) α1D (converted)
T1 construct: Isolated tissues were mounted in organ bath containing Krebs Henseleit buffer; from tissue; host or cells: isolated aorta of male wistar rats
T1 sequence (P23944 1-561): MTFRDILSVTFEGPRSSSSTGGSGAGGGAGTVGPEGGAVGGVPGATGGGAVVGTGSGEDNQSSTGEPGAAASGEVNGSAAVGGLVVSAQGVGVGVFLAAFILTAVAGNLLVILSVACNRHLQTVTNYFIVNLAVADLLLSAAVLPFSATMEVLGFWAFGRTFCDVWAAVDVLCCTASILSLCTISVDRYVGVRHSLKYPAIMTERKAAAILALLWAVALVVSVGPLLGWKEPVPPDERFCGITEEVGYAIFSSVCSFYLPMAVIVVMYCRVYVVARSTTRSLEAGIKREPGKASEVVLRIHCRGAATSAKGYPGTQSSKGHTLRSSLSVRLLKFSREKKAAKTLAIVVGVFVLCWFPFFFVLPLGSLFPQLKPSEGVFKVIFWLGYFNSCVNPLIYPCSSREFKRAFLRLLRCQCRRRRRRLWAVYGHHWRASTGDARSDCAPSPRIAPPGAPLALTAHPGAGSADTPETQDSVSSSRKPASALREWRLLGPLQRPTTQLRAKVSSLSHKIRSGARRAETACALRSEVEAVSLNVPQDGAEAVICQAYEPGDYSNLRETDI
From the text: In order to study selectivity of action of these compounds towards different α-adrenoceptor subtypes, the ability of these compounds to antagonise α1-adrenoceptor agonist induced contractile response on aorta (α1Dprostate (α1A and spleen (α1B was studied. Aorta and spleen tissues were isolated from urethane anaesthetised (1.5 gm/kg) male wistar rats. Isolated tissues were mounted in organ bath containing Krebs Henseleit buffer of following composition (mM): NaCl 118; KCl 4.7; CaCl2 2.5; MgSO4. 7H2O 1.2; NaHCO3 25; KH2PO41.2; glucose 11.5. Buffer was maintained at 37° C. and aereated with a mixture of 95% O2 and 5% CO2. A resting tension of 2 g (aorta) or 1 g (spleen and prostate)was applied to tissues. Contractile response was monitored using a force displacement transducer and recorded on chart recorders. Tissues were allowed to equilibrate for 2 hours. At the end of equilibration period, concentration response curves to norepinephrine (aorta) and phenylepinephrine (spleen and prostate) were obtained in absence and presence of tested compound (at concentration of 0.1,1 and 10 mM). Antagonist affinity was calculated and expressed as pKB vales in Table II.

[1] = test system: phenylephrine response on mean arterial pressure (MAP) and intraurethral pressure (IUP); assay: In vivo uroselectivity study in conscious beagle dogs; conditions: for Area Under Curve IUP / Area Under Curve MAP: percent change of phenylephrine (16 μg/kg i.v.) response, 0.5-24 hours
From the text: In order to assess the uroselectivity in vivo, the effects of these compounds were studied on mean arterial pressure (MAP) and intraurethral pressure (IUP) in conscious beagle dogs as per the method of Brune et. al. (Pharmacol 1996, 53:356-368). Briefly, male dogs were instrumented for chronic continuous measurement of arterial blood pressure by implanting a telemetry transmitter (TL11M2-D70-PCT, Data Sci. International, St. Paul, Minn. USA) into the femoral artery, two weeks prior to the study. During the recovery period, the animal was acclimatized to stay in the sling restraint. On the day of testing, overnight fasted animal was placed in the sling restraint. A Swan-Ganz. Balloon tipped catheter was introduced into the urethra at the level of prostate and the balloon was inflated (Brune. et. al. 1996). After recording the base line readings, effect of 16 μg/kg, phenylephrine (i.v.) on MAP and IUP was recorded. The response of phenylephrine to MAP and IUP were recorded at 0.5, 1, 2, 3, 4, 6, 9 and 24 hours after the oral administration of vehicle or the test drug. The changes in MAP was recorded on line using Dataquest Software (Data Sci. International. St. Paul, Minn. USA) and IUP was recorded on a Grass Polygraph (Model 7, Grass Instruments, USA). The change in phenylephrine response on MAP and IUP administration after the test drug administration was calculated as percent change of that of control values. Area under curve was calculated and the ratio of the values for MAP and IUP was used for calculating the uroselectivity (Table III)

| Kb (α1D adrenoceptor (aorta)) | SMILES | Uroselectivity Ratio IUP/MAP ([1]; 10 μg/kg p.o.) | Area Under Curve IUP ([1]; 10 μg/kg p.o.) | Area Under Curve MAP ([1]; 10 μg/kg p.o.) | Uroselectivity Ratio IUP/MAP ([1]; 3 μg/kg p.o.) | Area Under Curve IUP ([1]; 3 μg/kg p.o.) | Area Under Curve MAP ([1]; 3 μg/kg p.o.) | Uroselectivity Ratio IUP/MAP ([1]; 100 μg/kg p.o.) | Area Under Curve IUP ([1]; 100 μg/kg p.o.) | Area Under Curve MAP ([1]; 100 μg/kg p.o.) |
| --- | --- | --- | --- | --- | --- | --- | --- | --- | --- | --- |
| 1.74 nM | CCOc1ccccc1N1CCN(CCCN2C(=O)C3CC=CCC3C2=O)CC1.Cl (stereo not shown) [Compound 11, 2-[3-{4-(2-Ethoxyphenyl)piperazin-1-yl}propyl]-3a,4,7,7a-tetrahydro-1H-isoindole-1,3(2H)-dione hydrochloride] | 66 | 661 | 10 |  |  |  |  |  |  |
| 0.537 nM | CCCOc1ccccc1N1CCN(CCCN2C(=O)C3CC=CCC3C2=O)CC1.Cl (stereo not shown) [Compound 24, 2-[3-{4-(2-Propoxyphenyl)piperazin-1-yl}propyl]-3a,4,7,7a-tetrahydro-1H-isoindole-1,3(2H)-dione hydrochloride] |  |  |  | 7.6 | 522 | 68 |  |  |  |
| 2.29 nM | COc1ccccc1N1CCN(CCCN2C(=O)C3CC=CCC3C2=O)CC1.Cl (stereo not shown) [Compound 01, 2-[3-{4-(2-Methoxyphenyl)piperazin-1-yl}propyl]-3a,4,7,7a-tetrahydro-1H-isoindole-1,3(2H)-dione hydrochloride] |  |  |  |  |  |  | 5.54 | 514 | 93 |
| 0.123 nM | CC(C)Oc1ccccc1N1CCN(CCCN2C(=O)C3CC=CCC3C2=O)CC1.Cl (stereo not shown) [Compound 23, 2-[3-{4-(2-Isopropoxyphenyl)piperazin-1-yl}propyl]-3a,4,7,7a-tetrahydro-1H-isoindole-1,3(2H)-dione hydrochloride] |  |  |  | 4 | 790 | 197 |  |  |  |
